Consider 4 compounds from PMC12368479, “Inhibition of the Clathrin Terminal Domain—Amphiphysin Protein–Protein Interaction. Probing the Pitstop 2 Aromatic Moiety” (Chemmedchem, 2025).

The target in data set [1] is T1, clathrin heavy chain NTD (amino acids 1–364) – amphiphysin 1 B/C domain protein–protein interaction (NTD‐PPI) (Homo sapiens, UniProt Q00610).
T1 construct: GST‐tagged clathrin heavy chain NTD (amino acids 1–364); made in house
T1 sequence (Q00610 1-364): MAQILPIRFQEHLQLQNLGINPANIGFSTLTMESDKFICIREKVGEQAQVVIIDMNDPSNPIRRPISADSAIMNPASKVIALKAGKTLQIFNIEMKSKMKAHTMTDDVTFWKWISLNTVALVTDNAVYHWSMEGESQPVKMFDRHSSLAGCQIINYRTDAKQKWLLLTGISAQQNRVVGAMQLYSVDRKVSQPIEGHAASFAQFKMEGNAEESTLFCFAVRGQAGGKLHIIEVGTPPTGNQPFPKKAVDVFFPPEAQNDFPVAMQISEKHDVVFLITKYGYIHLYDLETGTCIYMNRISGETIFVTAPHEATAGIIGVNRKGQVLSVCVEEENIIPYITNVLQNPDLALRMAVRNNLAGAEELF
Also on record: method as in PMID 21816279, PMID 27853797. The following applies: Figure 1, lead Pitstop 2 and earlier analogs; read-out: IC50 (clathrin NTD‐PPI inhibition); cited from earlier work.

Data set [2] has as its system transferrin uptake (CME) in U2OS osteosarcoma cells. In words: Clathrin-mediated endocytosis assay: transferrin (Tfn) uptake in U2OS cells. The data set is classed as cell-based. The following applies: Homo sapiens, U2OS, Table 5; inhibition of transferrin‐red uptake in U2OS cells; '–'/NA = not active at 100 μM.
A short description of data set [3]: Qualitative solubility in solvents (compound data sheets, Supporting Information). The data set is classed as physicochemical. The following applies: solvents in which the compound dissolves.
Data set [4] concerns the target T1, clathrin heavy chain NTD (amino acids 1–364) – amphiphysin 1 B/C domain protein–protein interaction (NTD‐PPI). In words: ELISA-based clathrin inhibitor binding assay (NTD-PPI). The following applies: ELISA; for IC50: read-out: NTD‐PPI IC50. The procedure, abridged:
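His6-tagged amphiphysin 1 B/C domain (aa 250–578) was coated on plates in 20 mM HEPES pH 7.4, 50 mM NaCl, 1 mM DTT; compounds were incubated 1 h at room temperature with GST-clathrin NTD (aa 1–364). Bound NTD was detected by HRP anti-GST and TMB absorbance, expressed as percent binding of DMSO control.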
On the technique in general: An ELISA detects its analyte on a solid surface through an enzyme-linked reagent.

Data set [5] deals with T2, full length human Dynamin I (Homo sapiens, UniProt Q05193).
T2 construct: full length human Dynamin I expressed in Sf21 insect cells; made in house; host or cells: Sf21 insect cells
T2 sequence (Q05193 1-864): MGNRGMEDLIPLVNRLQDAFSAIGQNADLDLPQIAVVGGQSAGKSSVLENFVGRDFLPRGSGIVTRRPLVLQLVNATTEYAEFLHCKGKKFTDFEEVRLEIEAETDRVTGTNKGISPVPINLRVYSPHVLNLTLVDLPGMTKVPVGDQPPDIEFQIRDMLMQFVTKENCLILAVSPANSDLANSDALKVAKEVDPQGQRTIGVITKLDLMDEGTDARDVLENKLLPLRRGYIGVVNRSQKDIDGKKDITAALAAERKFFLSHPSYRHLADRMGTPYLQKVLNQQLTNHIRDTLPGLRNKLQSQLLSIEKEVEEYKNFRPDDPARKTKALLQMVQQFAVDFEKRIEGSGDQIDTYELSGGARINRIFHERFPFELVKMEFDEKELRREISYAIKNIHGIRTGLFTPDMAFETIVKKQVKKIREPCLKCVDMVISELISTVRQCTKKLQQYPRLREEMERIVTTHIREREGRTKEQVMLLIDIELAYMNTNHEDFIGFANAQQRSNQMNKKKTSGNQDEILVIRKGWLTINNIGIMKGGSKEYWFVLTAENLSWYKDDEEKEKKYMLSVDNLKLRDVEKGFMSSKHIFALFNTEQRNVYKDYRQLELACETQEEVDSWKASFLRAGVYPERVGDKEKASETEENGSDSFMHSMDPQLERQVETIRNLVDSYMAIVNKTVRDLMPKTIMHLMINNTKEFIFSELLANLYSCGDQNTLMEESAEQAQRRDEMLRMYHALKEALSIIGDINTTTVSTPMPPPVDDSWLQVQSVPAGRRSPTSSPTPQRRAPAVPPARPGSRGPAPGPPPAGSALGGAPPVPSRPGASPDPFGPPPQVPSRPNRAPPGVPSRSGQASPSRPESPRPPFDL
In words: Dynamin GTPase activity, Malachite Green phosphate detection assay. The format is biochemical. As for the experimental part:
Dynamin GTPase activity was determined in vitro using the Malachite Green phosphate detection absorbance‐based assay within a 96‐well plate format as described previously. The enzyme source was full length human Dynamin I expressed in Sf21 insect cells and affinity‐purified on GST‐Amph2‐SH3 (rat Amphiphysin 2 (494–588)).^[ [56] ^]

SMILES strings stand for the structures. Like-named read-outs stand apart in the source and are kept apart here. Where only a bound is given, the exact number is not on record here.

As for `O=C1N=C(NS(=O)(=O)c2cccc3ccccc23)S/C1=C\c1cccc(O)c1O` [compound 3], in data set [1], the 50% inhibitory concentration (IC50) – broadly, the concentration that inhibits the measured activity by half – is 3.5 µM.

As to `O=C1N=C(NS(=O)(=O)c2cccc3ccccc23)S/C1=C\c1ccc(Br)cc1` [Pitstop 2, (Z)‐N‐(5‐(4‐bromenzylidene)‐4‐oxo‐4,5‐dihydrothiazol‐2‐yl)naphthalene‐1‐sulfonamide], in data set [1], the half-inhibitory concentration (IC50) was 1.9 µM.

For the compound `O=C1N=C(NS(=O)(=O)c2cccc3ccccc23)S/C1=C\c1ccccc1[N+](=O)[O-]` [compound 15, (Z)‐N‐(5‐(2‐nitrobenzylidene)‐4‐oxo‐4,5‐dihydrothiazol‐2‐yl)naphthalene‐1‐sulfonamide], the IC50 in data set [2] is 46.3 ± 13.7 µM; in data set [4] (Table 1, library 1, average of duplicate measurements (n=2)) it was 153 µM; in data set [4] (Table 5), 153 µM; in data set [5] (Table 1, library 1, n = 1 unless noted (19: n = 2), '–' = not active at 150 μM, read-out: Dyn 1 IC50), 42.2 µM; in data set [5] (Table 5, dynamin GTPase, n = 1 or n = 2 as footnoted, NA = not active at 100 μM, read-out: Dynamin 1 IC50), roughly 42.4 µM. In addition, the Solubility entry in data set [3] was “DMSO, slightly soluble in ethyl acetate, acetone, ethanol and methanol”. In data set [4] (comparator not named (lead Pitstop 2 series)), the “fold potency reduction (NTD‐PPI)” value is given as greater than 100 fold.

As to `O=C1N=C(NS(=O)(=O)c2cccc(Cl)c2)S/C1=C\c1ccc(Br)cc1` [compound 2], the half-inhibitory concentration (IC50) in data set [1] was 5.1 µM.
